Patent US10711261B2 (priority 2015, dated 2020)
“Also recorded” adds a separate entry of the source.

Legend:
[1] = molecular target: recombinant human WT SOD1 (Homo sapiens, UniProt P00441); format: binding
DJ-1 [2] = molecular target: T1, DJ-1 (Homo sapiens, UniProt Q99497); format: binding
WT DJ-1 = WT DJ-1 (Homo sapiens, UniProt Q99497); format: binding
DJ-1 [3] = molecular target: T1, DJ-1; format: binding; remark: listed apart in the source
[4] = in vivo; cited from earlier work

T1 sequence (Q99497 whole entry): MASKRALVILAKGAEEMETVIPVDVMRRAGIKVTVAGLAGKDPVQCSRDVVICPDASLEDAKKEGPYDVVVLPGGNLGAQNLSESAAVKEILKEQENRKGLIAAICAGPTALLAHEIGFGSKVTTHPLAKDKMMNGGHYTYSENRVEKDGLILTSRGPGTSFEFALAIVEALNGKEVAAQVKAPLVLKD
WT DJ-1, sequence (Q99497 whole entry): as above
recombinant human WT SOD1, sequence (P00441 2-154): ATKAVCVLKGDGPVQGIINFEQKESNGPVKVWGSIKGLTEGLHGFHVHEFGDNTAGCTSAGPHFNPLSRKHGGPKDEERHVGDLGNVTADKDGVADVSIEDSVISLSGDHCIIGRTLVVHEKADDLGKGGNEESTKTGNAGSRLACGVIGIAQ

| SMILES | covalent dimerization of SOD1 (change in mass of covalently linked SOD1 dimers) [1] | denaturation temperature of DJ-1 (thermal stability) (DJ-1 [2]) | covalent dimerization of DJ-1 (WT DJ-1) | extent of cross-linking of SOD1 monomers [1] | site of covalent linkage in DJ-1 dimer (DJ-1 [3]) | LD100 [4] [mg/kg] |
| --- | --- | --- | --- | --- | --- | --- |
| OCC1(CO)CSSC1 [1,2-dithiolane-4,4-dimethanol] | capable of covalently dimerizing SOD1 |  |  |  |  |  |
| [O-][S+]1CCCCS1 (stereo not drawn) [NSC56224, 1-oxo-1,2-dithiane] | capable of covalently dimerizing SOD1 | increase the measured denaturation temperature of DJ-1 relative to untreated DJ-1 | identified as a covalent dimerizer of DJ-1 | able to cross-link the majority of SOD1 monomers in the sample | covalently linked DJ-1 dimers at Cys53; also recorded: two trypsin digest fragments of DJ-1 containing Cys53 (underlined) linked by NSC56224 |  |
| NC(=O)NN=C1CSSC1 [NSC72268] |  | increase the measured denaturation temperature of DJ-1 relative to untreated DJ-1 | identified as a specific DJ-1 covalent dimerizer; also recorded: specific covalent dimerizer of DJ-1 |  |  |  |
| CC(C)C[C@H](NC(=O)[C@H](Cc1ccccc1)NC(=O)c1cnccn1)B(O)O [bortezomib] |  |  |  |  |  | < 0.25 |
